The term cell viability denotes a per cent measure of how many cells are alive, often set against a control.

This is an account of results in patent US20230181524A1, “PHARMACEUTICAL COMBINATION AND USE THEREOF” (NATURAL MEDICINE INSTITUTE OF ZHEJIANG YANGSHENGTANG CO., …, priority 2020, published 2023).

The subject of one data set is DB lymphoma cells. Here is the method: (§1) (1) Cells were plated in a 10 cm culture plate to grow a density of about 90%. The medium was removed, and the adherent cells were washed once with a PBS buffer. 1 mL of trypsin was added, and immediately discarded after mixing well. The cells were placed in the incubator and digested for about 5 min, and then about 10 ml of fresh medium was added. 10 μL was taken for counting.
(§2) (2) 10 μL of the well-mixed cells were taken and mixed into 10 μL of Trypan Blue solution, and counted.
(§3) (3) After counting, the cells were diluted to 1×10^5 cells/ml. The diluted cells were mixed well, and plated into a 24-well plate with 500 μL per well, i.e., about 50,000 cells per well.
(§4) (4) The cells plated in the 24-well plate were cultured for about 24h, and then drugs were added. Various test groups comprise 5 groups as follows: the single-drug group of PKF118-310 (with a concentration of 0.1 μM), the group of ascorbic acid (with a concentration of 0.5 mM), the group of PKF118-310 (with a concentration of 0.1 μM) in combination with ascorbic acid (with a concentration of 0.5 mM); the control group that is a cell group to which only solvent DMSO is added; and the blank group that is a group to which no cell is added and only solvent (DMSO) is added.
(§5) (5) After 24h of dosing, the medium was discarded. About 150 μL of trypsin was added and then discarded. The cells were digested for 5 min;
(§6) (6) After digestion, equivalent amounts of PBS were added into each well and mixed uniformly. Then, 10 μL/well of Trypan Blue solution was added and mixed uniformly. 10 μL of the well-mixed solution was taken and counted. In accordance with “Cell viability=Cell Count of Test Group/Cell Count of Control Group×100%”, the cell viability of various groups was calculated.
For example, as for the DB lymphoma cells, the control group involves adding the solvent DMSO alone, the Vc group involves adding 2 mM of ascorbic acid, the low-dose PKF group involves adding 2 μM of PKF118-310, the low-dose PKF+Vc group involves adding 2 μM of PKF118-310 and 2 mM of ascorbic acid, the high-dose PKF group involves adding 5 μM of PKF118-310, and the high-dose PKF+the Vc group involves adding 5 μM of PKF118-310 and 2 mM of ascorbic acid.

In data set [1] the test system is HOS human osteosarcoma cells. Description: Cell counts of drug combination administration (Trypan Blue), cell viability. Here is the method: as §1, §2, §3
(§7) (4) The cells plated in the 24-well plate were cultured for about 24h, and then drugs were added. […]
as §5, §6
(§8) The coefficient of drug in interaction (CDI) was used to evaluate the nature of the interaction between the two drugs. The test groups were divided into the control group, the group of A drug, the group of B drug and the group of AB in combination, and used for detecting the cell viability in A, B and AB groups, respectively.

Data set [2] concerns 143B human osteosarcoma cells. The data set is described as above. The following applies: 143B cells. Here is the method:
as §1, §2, §3, §7, §5, §6, §8

The test system of data set [3] is HCT116 human colon cancer cells. As to the kind of experiment: cells. The following applies: HCT116 cells. Here is the method:
as §1, §2, §3, §4, §5, §6
The inhibitory effect of PKF118-310 on the MC38 human colon cancer cells and the HCT116 human […] cancer cells was detected in accordance with the corresponding method of Example 1.

Where [4] appears, read: 0.1 μM in combination with 0.5 mM sodium ascorbate.
The mark [5] stands for this setting: 0.3 μM in combination with 0.5 mM sodium ascorbate.

Like-named read-outs stand apart in the source and are kept apart here.

Consider `Cn1ncnc2c(=O)n(C)c(=O)nc1-2` [PKF118-310], for which the cell viability in the data set with DB lymphoma cells (2 μM and 2 mM ascorbic acid) is given as 12%; in the data set on DB lymphoma cells (5 μM and 2 mM ascorbic acid) it was 11%; in the data set with DB lymphoma cells (single drug 2 μM (low-dose)) it was 72%; in the data set with DB lymphoma cells (single drug 5 μM (high-dose)) it was 67%; in data set [1] (setting [4]) it was 10%; in data set [1] (single-drug 0.1 μM, 24h), 94%. In addition, the cell viability is 2% in data set [2] (setting [4]); 91% in data set [2] (single-drug 0.1 μM, 24h); 22% in data set [3] (setting [5]); 92% in data set [3] (single-drug 0.3 μM). The CDI value in the data set with DB lymphoma cells (high-dose (5 μM) with 2 mM ascorbic acid) amounted to 0.18; in the data set with DB lymphoma cells (low-dose (2 μM) with 2 mM ascorbic acid), 0.17; in data set [2] (setting [4]), 0.04; in data set [3] (setting [5]), 0.24. Moreover, the “CDI value (coefficient of drug interaction)” value in data set [1] (setting [4]) turned out to be 0.12.
